According to PubChem BioAssay (NCI):
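Five concentrations, 48 hours, 96-well plates. GI50: concentration for 50% inhibition of growth. TGI: concentration producing complete growth inhibition.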

Legend:
Assay in all cases: NCI anticancer screen, dose series, 48 h
A498 renal = test system: A498 renal
BT-549 breast = test system: BT-549 breast
IGROV1 ovarian = test system: IGROV1 ovarian
K-562 leukemia = test system: K-562 leukemia
OVCAR-4 ovarian = test system: OVCAR-4 ovarian
PC-3 prostate = test system: PC-3 prostate
UACC-257 melanoma = test system: UACC-257 melanoma
UO-31 renal = test system: UO-31 renal

Structure (SMILES)	GI50 (A498 renal)	TGI (A498 renal)	GI50 (BT-549 breast)	TGI (BT-549 breast)	GI50 (IGROV1 ovarian)	TGI (IGROV1 ovarian)	GI50 (K-562 leukemia)	TGI (K-562 leukemia)	GI50 (OVCAR-4 ovarian)	TGI (OVCAR-4 ovarian)	GI50 (PC-3 prostate)	TGI (PC-3 prostate)	GI50 (UACC-257 melanoma)	TGI (UACC-257 melanoma)	GI50 (UO-31 renal)	TGI (UO-31 renal)
CC1(C)CC2(C)OC2C2(C1)N=NC(=Nc1ccccc1)O2 (configuration not stated)	16.7 µM	34.8 µM	2.22 µM	4.99 µM	2.48 µM	5.99 µM	2.3 µM	12.5 µM	3.45 µM	17.2 µM	11.5 µM	28.9 µM	4.11 µM	15.7 µM	1.67 µM	4.02 µM
CCNC(=O)Oc1ccc(/C(=C(\C)c2ccc(Cl)cc2)c2ccc(OCCN3CCCCC3)cc2)cc1	13.7 µM	27 µM	4.27 µM	16.6 µM	4.13 µM	15.8 µM	2.34 µM	5.96 µM	2.99 µM	12.9 µM	3.38 µM	11.3 µM	2.38 µM	5.12 µM	2.05 µM	5.45 µM
CC(=O)N[C@@H]1CCC[C@H](C(=O)Nc2cc(-c3cnn4c3CC(C)(C)C4)c(Cl)cn2)C1	< 0.01 µM	0.0313 µM	< 0.01 µM	0.0499 µM	< 0.01 µM	> 100 µM	0.0212 µM	> 100 µM	0.0235 µM	25.4 µM	< 0.01 µM	> 100 µM	0.0227 µM	12 µM	0.0241 µM	–
Cc1ccc(OCCCCCCNCCO)c(C)c1	3.48 µM	17.7 µM	13.5 µM	28 µM	16.2 µM	35.3 µM	12.2 µM	31.4 µM	13.6 µM	28.8 µM	14 µM	29.7 µM	14.2 µM	29.6 µM	12.1 µM	26.4 µM
OCCCCC#Cc1ccccc1C#Cc1cnccn1	13.5 µM	53.9 µM	17.4 µM	55.2 µM	25.8 µM	96 µM	29.5 µM	> 100 µM	28.5 µM	> 100 µM	34.6 µM	> 100 µM	26 µM	62 µM	27 µM	> 100 µM
COc1cc(C(=O)N/N=C/c2cccc([N+](=O)[O-])c2)cc(OC)c1OC	1.79 µM	7.29 µM	4.95 µM	86.6 µM	4.63 µM	> 100 µM	0.872 µM	> 100 µM	43.4 µM	> 100 µM	2.92 µM	> 100 µM	5.11 µM	> 100 µM	5.2 µM	> 100 µM
C#Cc1ccc(-n2c(/C=C/c3cc(OC)c(OC)c(OC)c3)nc3ncccc3c2=O)cc1	2.63 µM	9.84 µM	2.99 µM	9.95 µM	6.08 µM	> 100 µM	3.83 µM	> 100 µM	12 µM	90.3 µM	3.96 µM	> 100 µM	9.74 µM	> 100 µM	4.09 µM	> 100 µM
O=c1[nH]c(-c2ccccn2)nc2sc3c(c12)CCCCCC3	1.31 µM	> 100 µM	5.62 µM	> 100 µM	3.98 µM	> 100 µM	0.99 µM	> 100 µM	5.88 µM	> 100 µM	4.05 µM	> 100 µM	> 100 µM	> 100 µM	5.87 µM	> 100 µM
O=c1[nH]c2cc(O)ccc2n2cc3c(F)cccc3c12	3.76 µM	> 100 µM	> 100 µM	> 100 µM	2.16 µM	> 100 µM	0.547 µM	> 100 µM	> 100 µM	> 100 µM	4.54 µM	> 100 µM	31.9 µM	> 100 µM	0.995 µM	> 100 µM
Cn1c(COC(=O)NCCN2CCOCC2)nc2c(N3CCOCC3)nc(-c3ccccc3)nc21	1.44 µM	2.83 µM	1.08 µM	2.71 µM	0.656 µM	2.15 µM	0.523 µM	> 100 µM	1.11 µM	2.53 µM	1.33 µM	3 µM	1.44 µM	3.16 µM	0.838 µM	2.18 µM
Cn1cc(-c2nn3cc(-c4cccs4)nc3s2)c2cc(F)ccc21	4.09 µM	50 µM	5.54 µM	77.4 µM	1.93 µM	> 100 µM	0.451 µM	> 100 µM	5.77 µM	> 100 µM	3.19 µM	> 100 µM	7.9 µM	> 100 µM	1.72 µM	> 100 µM
C=C(C)[C@@H]1CCC[C@]2(C(=O)O)CC[C@]3(C)[C@@H](CC[C@@H]4[C@@]5(C)C/C(=C/c6ccncc6)C(=O)C(C)(C)[C@@H]5CC[C@]43C)[C@@H]12	1.62 µM	5.01 µM	2.1 µM	6.21 µM	3.02 µM	9.31 µM	3.3 µM	> 100 µM	4.31 µM	67.4 µM	2.39 µM	20.3 µM	3 µM	13.8 µM	1.74 µM	4.65 µM
CN1CC(C(=O)NC2(C)OC3(O)C4CCCN4C(=O)C(Cc4ccccc4)N3C2=O)C=C2c3cccc4[nH]cc(c34)CC21 (configuration not stated)	–	30.9 µM	–	43 µM	–	50.8 µM	–	> 100 µM	–	> 100 µM	–	59.6 µM	–	29.8 µM	–	77.9 µM
CN1CCN(C(=S)SCN2C(=O)c3ccccc3S2(=O)=O)CC1	93 µM	> 100 µM	> 100 µM	> 100 µM	44.8 µM	> 100 µM	14.5 µM	94.6 µM	23.2 µM	72.3 µM	10.8 µM	39.2 µM	63.9 µM	> 100 µM	94.6 µM	> 100 µM
O=[N+]([O-])c1cccc(-c2ncc(-c3ccc(Cl)cc3Cl)[nH]2)c1	6.12 µM	22.6 µM	3.05 µM	8.07 µM	6.65 µM	13.5 µM	2.1 µM	> 19.7 µM	3.18 µM	12.1 µM	3.69 µM	14.9 µM	9.7 µM	29 µM	5.18 µM	15.3 µM
COc1cc(C(=O)/C=C/c2c(C(F)(F)F)nc3sccn23)cc(OC)c1OC	1.89 µM	3.42 µM	2.26 µM	6.87 µM	2.66 µM	61.4 µM	1.74 µM	6.27 µM	3.05 µM	17.6 µM	2.66 µM	8.69 µM	1.9 µM	4.2 µM	1.87 µM	3.71 µM
N#Cc1ccc(N2Cc3cc(Cl)ccc3OC3=C2C(=O)N(Cc2ccccc2)C3=O)cc1	1.83 µM	3.96 µM	1.6 µM	3.3 µM	2.19 µM	4.88 µM	0.359 µM	2.02 µM	1.41 µM	3.26 µM	1.41 µM	3.52 µM	1.35 µM	2.85 µM	1.32 µM	2.61 µM
CCCCCCCCCCCCCCCCCC1=NC(C)(C)CN1CCO	13.5 µM	32.1 µM	19.8 µM	48 µM	1.56 µM	3.11 µM	1.53 µM	3.35 µM	3.12 µM	9.8 µM	1.63 µM	4.43 µM	1.8 µM	3.57 µM	1.57 µM	3.05 µM
O=c1c2cc(F)ccc2sc2c(NCCCN3CCCC3)nc3ccccc3c12	1.74 µM	7.65 µM	2.99 µM	12 µM	1.84 µM	3.85 µM	2.06 µM	4.86 µM	2.01 µM	4.61 µM	1.6 µM	3.15 µM	1.97 µM	3.98 µM	1.59 µM	4.18 µM
CN(C)c1ccc(Sc2ccc3nc(N)nc(N)c3c2)cc1	3.34 µM	14 µM	3.28 µM	19.5 µM	0.67 µM	14.2 µM	0.142 µM	4.55 µM	1.76 µM	17.1 µM	0.63 µM	15.6 µM	1.09 µM	4.91 µM	1.12 µM	13.6 µM
CC(C)(C)c1ccc(S(=O)(=O)N[C@H]2CC[C@H]3[C@@H]4CCc5cc(O)ccc5[C@H]4CC[C@]23C)cc1	1.31 µM	2.72 µM	1.75 µM	3.32 µM	3.74 µM	10.8 µM	2.46 µM	8.64 µM	2.91 µM	10.2 µM	2.1 µM	7.57 µM	2.45 µM	6.78 µM	1.81 µM	4.11 µM
COc1ccc(N=C2NN=C(c3c[nH]c4ccccc34)CS2)cc1OC	4.43 µM	> 61.3 µM	4.2 µM	> 42.5 µM	10.5 µM	> 100 µM	7.67 µM	> 100 µM	16 µM	> 100 µM	–	> 45.8 µM	11.1 µM	> 56.6 µM	5.81 µM	> 100 µM
